Test results taken from PMC6009895, “Screening assay for inhibitors of a recombinant Streptococcus pneumoniae UDP-glucose pyrophosphorylase” (Journal of Enzyme Inhibition and Medicinal Chemistry, 2017).

Biological target: T1, His6GalUSpn (UDP-glucose pyrophosphorylase, UDPG:PP, GalU) (Streptococcus pneumoniae, UniProt O86882)
T1 construct: complete galU gene amplified from plasmid pMMG2 into pET28a (NheI/BamHI; pETgalU), His6 tag before the protein, tag cut not mentioned; E. coli BL21(DE3), IMAC
Assay: malachite green Pi assay coupled to inorganic pyrophosphatase
Type: biochemical
Conditions: 30 min preincubation at 37 °C with 7.5 mM compound; 7.5 mM UTP, 7.5 mM Glc-1P, 5 mM MgCl2, MOPS pH 8.0, 37 °C

T1 sequence (O86882 entry or part of it): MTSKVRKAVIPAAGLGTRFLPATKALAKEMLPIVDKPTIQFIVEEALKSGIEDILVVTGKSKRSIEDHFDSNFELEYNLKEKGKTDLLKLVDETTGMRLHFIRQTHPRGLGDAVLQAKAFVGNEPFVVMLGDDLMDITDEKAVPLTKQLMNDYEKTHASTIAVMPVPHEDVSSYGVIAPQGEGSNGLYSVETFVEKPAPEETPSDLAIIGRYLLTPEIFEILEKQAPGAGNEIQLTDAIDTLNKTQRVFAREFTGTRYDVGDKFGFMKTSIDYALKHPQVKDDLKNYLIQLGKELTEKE

Compound | % inhibition at 7.5 mM
Nc1nc(NC2CC2)c2ncn([C@H]3C=C[C@@H](CO)C3)c2n1 [abacavir] | inhibit S. pneumoniae UDP-glucose pyrophosphorylase, including compounds containing a purine base in their structure
Cc1cn([C@H]2C=C[C@@H](CO)O2)c(=O)[nH]c1=O [stavudine] | nucleoside analogs: abacavir, decitabine stavudine and zidovudine
Cc1cn([C@H]2C[C@H](N=[N+]=[N-])[C@@H](CO)O2)c(=O)[nH]c1=O [zidovudine] | nucleoside analogs: abacavir, decitabine stavudine and zidovudine
